ChEMBL document CHEMBL2203140, “Syntheses and structure-activity relationship studies of N-substituted-β-D-glucosaminides as selective cytotoxic agents” (Bioorg Med Chem Lett, 2012)

Key:
Format in all cases: functional, cell-based
HT-1080 = test: Cytotoxicity against human HT1080 cells after 48 hrs by MTT assay; conditions: HT-1080, 48 h
HCT-116 = test: Cytotoxicity against human HCT116 cells after 48 hrs by MTT assay; conditions: HCT-116, 48 h
HepG2 = test: Cytotoxicity against human HepG2 cells after 48 hrs by MTT assay; conditions: HepG2, 48 h
A549 = test: Cytotoxicity against human A549 cells after 48 hrs by MTT assay; conditions: A549, 48 h
MCF7 = test: Cytotoxicity against human MCF7 cells after 48 hrs by MTT assay; conditions: MCF7, 48 h
HeLa = test: Cytotoxicity against human HeLa cells after 48 hrs by MTT assay

SMILES | IC50 (HT-1080) [µM] | IC50 (HCT-116) [µM] | IC50 (HepG2) [µM] | IC50 (A549) [µM] | IC50 (MCF7) [µM] | IC50 (HeLa) [µM]
C[C@@H]1CC[C@@]2(OC1)O[C@H]1C[C@H]3[C@@H]4CC=C5C[C@@H](O[C@@H]6O[C@H](CO)[C@@H](O)[C@H](O)[C@H]6NC(=O)/C=C/c6ccccc6)CC[C@]5(C)[C@H]4CC[C@]3(C)[C@H]1[C@@H]2C | 29.8 | 39.1 | 36.3 | 41.8 | 16 | 12.8
C[C@@H]1CC[C@@]2(OC1)O[C@H]1C[C@H]3[C@@H]4CC=C5C[C@@H](O[C@@H]6O[C@H](CO)[C@@H](O)[C@H](O)[C@H]6NC(=O)/C=C/c6ccc(F)cc6)CC[C@]5(C)[C@H]4CC[C@]3(C)[C@H]1[C@@H]2C | 34.9 | 35 | 39.8 | 33.8 | 21.2 | 26.9
